In this assay the target is T1, human M5 receptors (hM5) (Homo sapiens, UniProt P08912).
T1 construct: expressed in transfected cells
T1 sequence (P08912 1-532): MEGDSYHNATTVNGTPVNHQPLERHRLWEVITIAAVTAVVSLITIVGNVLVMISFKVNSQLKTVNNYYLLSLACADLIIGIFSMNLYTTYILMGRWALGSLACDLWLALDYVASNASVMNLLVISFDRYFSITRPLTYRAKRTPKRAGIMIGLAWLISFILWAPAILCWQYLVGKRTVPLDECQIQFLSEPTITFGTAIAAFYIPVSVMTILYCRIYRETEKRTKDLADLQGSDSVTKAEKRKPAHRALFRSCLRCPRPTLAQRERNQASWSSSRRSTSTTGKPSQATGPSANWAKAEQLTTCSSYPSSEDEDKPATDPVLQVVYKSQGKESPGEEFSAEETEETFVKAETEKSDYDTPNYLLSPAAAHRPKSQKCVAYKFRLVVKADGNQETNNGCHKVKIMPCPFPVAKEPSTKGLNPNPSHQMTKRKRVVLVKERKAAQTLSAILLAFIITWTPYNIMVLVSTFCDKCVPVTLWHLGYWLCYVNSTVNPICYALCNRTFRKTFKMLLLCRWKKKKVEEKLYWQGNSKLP
The experiment in a line: Cell-based functional calcium mobilization assay of mAChR M5 activity (inhibition of EC80 acetylcholine response) in CHO cells. The note with it: CHO cells stably expressing hM5; for IC50: calcium flux (Fluo-4), EC80 acetylcholine addition; for EC80 MIN: minimum of EC80 acetylcholine response, normalized to maximum acetylcholine response. The protocol: All functional cell-based assays were performed essentially as previously described (Marlo et al., Mol.Pharm. 2009, 75(3), 577-588; Brady et al., J. Pharm. & Exp. Ther. 2008, 327, 941-953). Initial, single point (10 µM) competitive and non-competitive inhibitor characterization was performed in stable Chinese Hamster Ovary (CHO) cell lines constitutively expressing human M5 receptors. These were plated at 15,000 cells per 20 µL per well in Greiner 384-well black-walled, TC-treated, clear-bottomed plates (Fisher) in Ham’s F12 medium supplemented with 10% FBS and 20 mM HEPES. Cells were incubated overnight at 37° C. under 5% CO2. The following day, medium was exchanged with assay buffer (Hank’s Balanced Salt Solution supplemented with 20 mM HEPES and 2.5 mM Probenecid, pH 7.4) leaving 20 µL of assay buffer in each well. This was followed by the addition of 20 µL of 2.3 µM of Fluo-4 AM (Invitrogen) in assay buffer (final concentration 1.15 µM). The cells were then incubated 50 minutes at 37° C. under 5% CO2. The assay buffer plus dye was then exchanged with fresh assay buffer leaving a volume of 20 µL in each well. Test compounds were diluted into assay buffer to a 2X (20 µM) concentration in 0.2% dimethylsulfoxide (DMSO) in columns 3 - 22 with matching DMSO concentration in columns 1, 2, 23, and […]; compounds were added to the assay for a final concentration of 10 µM and a final DMSO concentration of 0.1%. Acetylcholine (Sigma-Aldrich) was prepared to provide 5X concentrations of EC20, EC80, and ECmax in the triple-addition assay, providing a signal window to view agonism, potentiation, and inhibition of the acetylcholine response as well as a means to normalize to the maximum acetylcholine response.
Either an FDSS (Hamamatsu) or Panoptic (WaveFront Biosciences) kinetic imaging plate reader was used for assay execution and measurement of calcium flux. After establishing baseline fluorescence, test compounds (20 µL) were added to the cells using the reader’s integrated pipettor and allowed to equilibrate for 140 seconds before addition of the EC20 concentration of acetylcholine (10 µL) along with vehicle in selected DMSO-only wells in the outer two columns. The EC80 concentration of acetylcholine (10 µL) was added 125 seconds after the EC20 addition along with ECmax concentration in the wells receiving vehicle in the second addition. The raw fluorescence data from each well was normalized to the corresponding initial fluorescence reading (static ratio). The maximum fluorescence value following each addition was determined and the minimum value within that same timeframe was subtracted for each well then normalized to the average of the ECmax maximum-minimum response, providing a %AChmax value for each addition for each well. The single point values represent mean values determined within the EC80 addition timeframe obtained from at least three independent determinations performed in triplicate or greater (error bars represent +/- SEM) unless otherwise specified.
Further characterization of competitive and non-competitive inhibitor compounds (compound potency and mAChR subtype-selectivity) was performed on the FDSS with calcium mobilization assays performed as previously described (Marlo et al., 2009; Brady et al., 2008) and in a format similar to that described above using the same reagents. CHO cells stably expressing hM1, hM2/Gqi5, hM3, hM4/Gqi5, hM5, rM1, rM2/Gqi5, rM3, rM4/Gqi5, or rMs were plated in the manner described above. A ten-point concentration range of test compound was serial diluted in assay buffer to 2X final concentration and acetylcholine was diluted in assay buffer to 5X of the EC20 and EC80 concentrations, determined empirically and 5X maximal (2 mM final concentration) stock concentrations. FDSS protocols were carried out as described above; the static ratio was calculated and the minimum response subtracted from the maximum response within the timeframe of each addition. […]

Turning to `O=C(Nc1ccc2scnc2c1)[C@H]1CCN(S(=O)(=O)c2cccnc2)C[C@@H]1F` (racemic) [Compound 82, trans-(rac)-N-(benzo[d]thiazol-5-yl)-3-fluoro-1-(pyridin-3-ylsulfonyl)piperidine-4-carboxamide], the IC50 came to 95 nM and the “EC80 MIN” value is listed as 2%.
In the case of `O=C(Nc1ccc2scnc2c1)C1CCN(S(=O)(=O)c2ccc3c(c2Br)CCO3)CC1` [Compound 57, N-(benzo[d]thiazol-5-yl)-1-((4-bromo-2,3-dihydrobenzofuran-5-yl)sulfonyl)piperidine-4-carboxamide], the IC50 came out at 333 nM and the “EC80 MIN” value was determined as 2%.
For the molecule `CC1(C(=O)Nc2ccc3scnc3c2)CCN(S(=O)(=O)c2ccc(Cl)nc2)CC1` [Compound 106, N-(benzol[d]thiazol-5-yl)-1-((6-chloropyridin-3-yl)sulfonyl)-4-methylpiperidine-4-carboxamide], the IC50 was over 10000 nM and the “EC80 MIN” value came to 35%.
On the same counts, the results for `Cc1nn(C)cc1S(=O)(=O)N1CC[C@H](C(=O)Nc2ccc3scnc3c2)[C@H](F)C1` (racemic) [Compound 73, cis-(rac)-N-(benzo[d]thiazol-5-yl)-1-((1,3-dimethyl-1H-pyrazol-4-yl)sulfonyl)-3-fluoropiperidine-4-carboxamide] are over 10000 nM and 45%.
For the molecule `COc1ccccc1S(=O)(=O)N1CCC(C(=O)Nc2ccc3scnc3c2)CC1` [Compound 52, N-(benzo[d]thiazol-5-yl)-1-((2-methoxyphenyl)sulfonyl)pi peridine-4-carboxamide], the half-inhibitory concentration (IC50) was over 10000 nM and the “EC80 MIN” value is 24%.
For `O=C(Nc1ccc2scnc2c1)C1CCN(S(=O)(=O)c2cccc3nsnc23)CC1` [Compound 21, 1-(benzo[c][1,2,5]thiadiazol-4-ylsulfonyl)-N-(benzo[d]thiazol-5-yl)piperidine-4-carboxamide], the IC50 is 434 nM and the “EC80 MIN” value is listed as 3%.
On to `C[C@H]1CN(S(=O)(=O)c2ccc(Cl)nc2)CC[C@@H]1C(=O)Nc1ccc2scnc2c1` (racemic) [Compound 118, trans-(rac)-N-(benzo[d]thiazol-5-yl)-1-((6-chloropyridin-3-yl)sulfonyl)-3-methylpiperidine-4-carboxamide], for which the half-maximal inhibitory concentration (IC50) is 803 nM and the “EC80 MIN” value was 4%.
Consider `O=C(Nc1ccc2scnc2c1)C1CCN(S(=O)(=O)c2ccc3ncccc3c2)CC1` [Compound 4, N-(benzo[d]thiazol-5-yl)-1-(quinolin-6-ylsulfonyl)piperidine-4-carboxamide], for which the concentration for half-maximal inhibition (IC50) is 959 nM and the “EC80 MIN” value came to 2%.
For the molecule `N#Cc1cccc(S(=O)(=O)N2CCC(C(=O)Nc3ccc4scnc4c3)CC2)c1` [Compound 51, N-(benzo[d]thiazol-5-yl)-1-((3-cyanophenyl)sulfonyl)piperi dine4-carboxamide], the 50% inhibitory concentration (IC50) was 3530 nM and the “EC80 MIN” value is listed as 38%.
With `O=C(Nc1ccc2scnc2c1)C1(F)CCN(S(=O)(=O)c2cccc3nsnc23)CC1` [Compound 115, 1-(benzo[c][1,2,5]thiadiazol-4-ylsulfonyl)-N-(benzo[d]thiazol-5-yl)-4-fluoropiperidine-4-carboxamide], the IC50 is over 10000 nM and the “EC80 MIN” value came out at 51%.
Regarding `Cc1ccc(S(=O)(=O)N2CCC(C(=O)Nc3ccc4scnc4c3)CC2)cn1` [Compound 124], the half-inhibitory concentration (IC50) came out at 105 nM and the “EC80 MIN” value is on record as 3%.
For `Cc1nn(C)cc1S(=O)(=O)N1CCC(C(=O)Nc2ccc3scnc3c2)CC1` [Compound 5, N-(benzo[d]thiazol-5-yl)-1-((1,3-dimethyl-1H-pyrazol-4-yl)sulfonyl)piperidine-4-carboxamide], the half-inhibitory concentration (IC50) worked out at 304 nM and the “EC80 MIN” value stood at 2%.
As for `C[C@@H]1CN(S(=O)(=O)c2cccc3nsnc23)CC[C@@H]1C(=O)Nc1ccc2scnc2c1` (racemic) [Compound 96, cis-(rac)-1-(benzo[c][1,2,5]thiadiazol-4-ylsulfonyl)-N-(benzo[d]thiazol-5-yl)-3-methylpiperidine-4-carboxamide], the half-maximal inhibitory concentration (IC50) turned out to be 1110 nM and the “EC80 MIN” value is given as 3%.
Turning to `O=C(Nc1ccc2scnc2c1)[C@H]1CCN(S(=O)(=O)c2ccc3ncsc3c2)C[C@@H]1F` (racemic) [Compound 77, trans-(rac)-N-(benzo[d]thiazol-5-yl)-1-(benzo[d]thiazol-6-ylsulfony1)-3-fluoropiperidine-4-carboxamide], the IC50 came out at 209 nM and the “EC80 MIN” value is given as 2%.
Consider `CC1COc2ccc(S(=O)(=O)N3CCC(C(=O)Nc4ccc5scnc5c4)CC3)cc21` (racemic) [Compound 131, (rac)-N-(benzo[d]thiazol-5-yl)-1-((3-methyl-2,3-dihydrobenzofuran-5-yl)sulfonyl)piperidine-4-carboxamide], for which the half-maximal inhibitory concentration (IC50) worked out at 109 nM and the “EC80 MIN” value is listed as 3%.
With `C[C@@H]1CN(S(=O)(=O)c2cccnc2)CC[C@@H]1C(=O)Nc1ccc2scnc2c1` (racemic) [Compound 103, cis-(rac)-N-(benzo[d]thiazol-5-yl)-3-methyl-1-(pyridin-3-ylsulfonyl)piperidine-4-carboxamide], the IC50 is over 10000 nM and the “EC80 MIN” value came out at 5%.
`O=C(Nc1ccc2scnc2c1)C1CCN(S(=O)(=O)c2ccc(F)cc2)CC1` [Compound 67, N-(benzo[d]thiazol-5-yl)-1-((4-fluorophenyl)sulfonyl)piper idine-4-carboxamide]: the IC50 is over 10000 nM and the “EC80 MIN” value is reported as 7%.
As to `CC1(C)CN(S(=O)(=O)c2ccc3ncsc3c2)CCC1C(=O)Nc1ccc2scnc2c1` (stereo not shown) [Compound 141, N-(benzo[d]thiazol-5-yl)-1-(benzo[d]thiazol-6-ylsulfonyl)-3,3-dimethylpiperidine-4-carboxamide], the IC50 was over 10000 nM and the “EC80 MIN” value is recorded as 38%.
Take `O=C(Nc1ccc2scnc2c1)[C@@H]1CCN(S(=O)(=O)c2ccc3c(c2)OCO3)C1` [Compound 154, (R)-1-(benzo[d][1,3]dioxol-5-yisulfonyl)-N-(benzo[d]thiazol-5-yl)pyrrolidine-3-carboxamide]: the IC50 is 350 nM and the “EC80 MIN” value was found to be 3%.
As for `O=C(Nc1ccc2scnc2c1)[C@H]1CCN(S(=O)(=O)c2ccc3c(c2)CCO3)C[C@H]1F` (racemic) [Compound 69, cis-(rac)-N-(benzo[d]thiazol-5-yl)-1-((2,3-dihydrobenzofuran-5-yl)sulfonyl)-3-fluoropiperidine-4-carboxamide], the IC50 stood at 2280 nM and the “EC80 MIN” value was 2%.
